Each structure is given as a SMILES string. Like-named read-outs stand apart in the source and are kept apart here.

For assay [1], the target named is T1, BIKE (amino acids S38-E345) (K320A, K321A) (Homo sapiens, UniProt Q9NSY1, K320A/K321A).
T1 construct: against BIKE (amino acids S38-E345) (K320A, K321A); 6His (N, cleaved yes)
Kind of assay: BIKE pSENs assay. The class given is biochemical. Summed up:
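E. coli-expressed, biotinylated, tag-free BIKE at 20 nM in HEPES pH 7.5 buffer with 10 mM MgCl2 preincubated with compound 15 min at 25° C. Reaction started with 30 uM AQT0759 sensor peptide and 40 uM ATP (concentrations before 1:1 mixing).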

Assay [2] addresses AAK1 (Homo sapiens, UniProt Q2M2I8). As to the kind of experiment: pAP2M1 cell-based assay (in-cell Western). The note with it: Hela cells co-transfected with AP2M1 and AAK1, 3 hr treatment; class symbols; read-out: AAK1 In-cell Western: IC50. From the text:
pAP2M1 Cell-Based Assay (in-Cell Western):
The plate was read on Licor Odyssey CLx imaging system (LICOR) to acquire fluorescence intensity at 700 channel and 800 channel.
Data analysis: Fluorescence intensity at 700 channel served as internal standard and 800 channel were normalized with 700 channel.

Assay [3] concerns the target T2, AAK1 (amino acids T27-A365) (Homo sapiens, UniProt Q2M2I8).
T2 construct: against AAK1 (amino acids T27-A365); 6His (N, cleaved yes)
Kind of assay: AAK1 pSENs assay. The class given is biochemical. The note with it: class symbols; read-out: AAK1 pSENs: EIC50. An outline of the steps: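 Biotinylated, tag-free AAK1 T27-A365 expressed in E. coli was held at 20 nM in enzyme solution (HEPES pH 7.5, 10 mM MgCl2, DTT, EGTA, Brij35, BSA) and preincubated with compound for 15 min at 25 °C. The reaction was started with an equal volume of substrate solution containing 30 uM AQT0759 peptide and 70 uM ATP. IC50 determined.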

Assay [4] has as its target T3, GAK (amino acids Q25-N335) (Homo sapiens, UniProt O14976).
T3 construct: against GAK (amino acids Q25-N335); 6His (N, cleaved yes)
T3 sequence (O14976 25-335): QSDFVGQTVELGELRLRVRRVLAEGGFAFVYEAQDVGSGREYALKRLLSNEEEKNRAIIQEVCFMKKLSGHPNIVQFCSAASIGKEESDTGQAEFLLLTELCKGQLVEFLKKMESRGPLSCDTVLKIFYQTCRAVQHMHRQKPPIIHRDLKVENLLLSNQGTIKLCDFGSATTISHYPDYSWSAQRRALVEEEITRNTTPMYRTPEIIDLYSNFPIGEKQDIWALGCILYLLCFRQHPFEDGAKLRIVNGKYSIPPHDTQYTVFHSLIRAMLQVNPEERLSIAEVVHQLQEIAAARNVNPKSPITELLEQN
As to the kind of experiment: GAK pSENs assay. Format: biochemical. On the procedure:
The recombinant proteins were independently expressed in Escherichia coli BL21(DE3) cells cultured in Luria-Bertani (LB) medium until OD600 reached 0.6-0.8, then cooled to 15° C. and supplemented with 0.5 mM isopropyl 1-thio-D-galactopyranoside (IPTG) induce protein expression 16 h. Cells were harvested and resuspended in lysis buffer (50 mM HEPES pH 7.5, 500 mM NaCl, 5 mM imidazole, 5% glycerol, 0.5 mM Tris (2-carboxyethyl) phosphine (TCEP), cOmplete Protease Inhibitor Tablet (Roche)) and lysed by microfludics high pressure homogenizer (UH-06, Union-Biotech). Proteins were purified using […] chromatography (His FF column, Bestchrom) and eluted stepwise in binding buffer with 20-300 mM imidazole. Removal of the hexahistidine tag was performed at 4° C. overnight using recombinant TEV protease and reacted with BirA to obtain the corresponding biotinylated-AAK1, BIKE or GAK proteins. Further separated in the reverse Strep column (Strep-Tactin® XT, IBA). The Biotin elution sample was collected containing untagged biotinylated protein was then purified by Ion-exchange chromatography (Mono Q 10/100 GL, Cytiva) and Size-exclusion chromatography (HiLoad 16/600 Superdex 200 pg, Cytiva). The pure protein was stored in a storage buffer 50 mM HEPES (pH 7.5), 300 mM NaCl, 5% glycerol at −80° C. Protein were characterized by SDS-PAGE, LC-MS and aSEC.
This example describes one illustrative method for determining the IC50 of the compounds of the present invention against GAK (amino acids Q25-N335).

The mark [5] stands for this setting: class symbols, read-out: BIKE pSENs: IC50.
The mark [6] stands for this setting: class symbols, read-out: GAK pSENs:IC50.

Chain of AAK1 (Q2M2I8 whole entry): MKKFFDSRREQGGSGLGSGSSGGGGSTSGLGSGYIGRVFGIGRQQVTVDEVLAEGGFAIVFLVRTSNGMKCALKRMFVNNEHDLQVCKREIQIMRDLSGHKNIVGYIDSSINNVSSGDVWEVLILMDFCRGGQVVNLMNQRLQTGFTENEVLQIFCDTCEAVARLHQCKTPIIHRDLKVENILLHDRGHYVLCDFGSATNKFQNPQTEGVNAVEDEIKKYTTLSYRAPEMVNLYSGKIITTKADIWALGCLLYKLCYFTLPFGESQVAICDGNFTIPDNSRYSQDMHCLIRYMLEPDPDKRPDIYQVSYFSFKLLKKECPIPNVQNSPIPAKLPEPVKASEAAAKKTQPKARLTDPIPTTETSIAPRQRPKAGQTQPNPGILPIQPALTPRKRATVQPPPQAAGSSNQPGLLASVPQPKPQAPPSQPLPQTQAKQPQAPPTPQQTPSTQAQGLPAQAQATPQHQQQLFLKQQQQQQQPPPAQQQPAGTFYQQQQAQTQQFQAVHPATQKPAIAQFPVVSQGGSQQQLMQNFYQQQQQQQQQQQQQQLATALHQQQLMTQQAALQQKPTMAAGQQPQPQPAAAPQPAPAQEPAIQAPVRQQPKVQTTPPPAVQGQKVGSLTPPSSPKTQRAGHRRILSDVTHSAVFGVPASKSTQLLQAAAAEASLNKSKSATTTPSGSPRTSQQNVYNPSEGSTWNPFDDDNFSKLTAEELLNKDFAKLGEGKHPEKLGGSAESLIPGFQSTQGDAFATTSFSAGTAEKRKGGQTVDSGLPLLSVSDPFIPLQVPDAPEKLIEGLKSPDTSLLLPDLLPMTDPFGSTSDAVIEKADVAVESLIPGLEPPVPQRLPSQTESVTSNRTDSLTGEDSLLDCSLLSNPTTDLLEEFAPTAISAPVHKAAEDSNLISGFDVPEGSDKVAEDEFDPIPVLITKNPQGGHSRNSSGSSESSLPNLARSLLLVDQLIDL
T1 sequence (Q9NSY1 38-345 K320A/K321A): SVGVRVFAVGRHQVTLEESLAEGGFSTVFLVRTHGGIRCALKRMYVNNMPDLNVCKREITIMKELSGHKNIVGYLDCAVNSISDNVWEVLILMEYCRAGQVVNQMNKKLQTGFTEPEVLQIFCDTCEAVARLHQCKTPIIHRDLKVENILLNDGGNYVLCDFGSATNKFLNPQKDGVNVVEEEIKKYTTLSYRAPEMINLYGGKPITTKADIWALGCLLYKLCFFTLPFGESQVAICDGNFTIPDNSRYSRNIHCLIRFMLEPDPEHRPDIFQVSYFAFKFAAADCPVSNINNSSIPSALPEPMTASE
T2 sequence (Q2M2I8 27-365): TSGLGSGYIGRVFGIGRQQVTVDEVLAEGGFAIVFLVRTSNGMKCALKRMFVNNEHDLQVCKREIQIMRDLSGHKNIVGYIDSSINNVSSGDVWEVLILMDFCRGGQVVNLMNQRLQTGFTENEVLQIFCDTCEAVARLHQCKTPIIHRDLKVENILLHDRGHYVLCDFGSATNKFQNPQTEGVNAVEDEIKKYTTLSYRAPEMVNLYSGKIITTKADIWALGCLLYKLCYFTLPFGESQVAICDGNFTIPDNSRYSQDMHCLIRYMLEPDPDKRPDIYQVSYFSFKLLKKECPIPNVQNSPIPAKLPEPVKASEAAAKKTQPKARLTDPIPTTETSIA

For `CC(C)(C)OC(=O)NCCNc1nc2c(-c3cccnc3OC3CC3)cnn2cc1F` [Compound I-124, tert-butyl N-[2-[[3-[2-(cyclopropoxy)-3-pyridyl]-6-fluoro-pyrazolo[1,5-a]pyrimidin-5-yl]amino]ethyl]carbamate], the IC50 lay in the range of 501 to 1500 nM in assay [1] (setting [5]), 501 to 1500 nM in assay [2], 51 to 150 nM in assay [3] and 501 to 1500 nM in assay [4] (setting [6]).

In the case of `CN(CCNc1ccn2ncc(-c3cccnc3OC3CC3)c2n1)C(=O)OC(C)(C)C` [Compound I-12, tert-butyl N-[2-[[3-[2-(Cyclopropoxy)-3-pyridyl]pyrazolo[1,5-a]pyrimidin-5-yl]amino]ethyl]-N-methyl-carbamate], the IC50 in assay [1] (setting [5]) was in the range of 51 to 150 nM; in assay [2], 151 to 500 nM; in assay [3] it was 1 to 50 nM; in assay [4] (setting [6]), 501 to 1500 nM.

On to `C[C@@]1(OC(=O)N[C@H]2CCN(c3ccn4ncc(-c5cccnc5OC5CC5)c4n3)C2)CCNC1` [Compound I-57, (R)-3-methylpyrrolidin-3-yl ((S)-1-(3-(2-cyclopropoxypyridin-3-yl)pyrazolo[1,5-a]pyrimidin-5-yl)pyrrolidin-3-yl)carbamate], for which the IC50 in assay [2] was over 1500 nM; in assay [3], 51 to 150 nM; in assay [4] (setting [6]) it was 501 to 1500 nM.

As for `CC(C)Oc1ncccc1-c1cnn2ccc(N3CCN(C(=O)O[C@@]4(C)CCNC4)CC3)nc12` [Compound I-21, [(3S)-3-Methylpyrrolidin-3-yl]4-[3-(2-isopropoxy-3-pyridyl)pyrazolo[1,5-a]pyrimidin-5-yl]piperazine-1-carboxylate], the results for the IC50 in assay [2], in assay [3] and in assay [4] (setting [6]) were over 1500 nM, 51 to 150 nM and 501 to 1500 nM, respectively.

As for `CC1(OC(=O)N2CCN(c3ccn4ncc(-c5cccnc5OC5CC5)c4n3)CC2)CCNC1` (stereo not drawn) [Compound I-13-5, (3-Methylpyrrolidin-3-yl) 4-[3-[2-(cyclopropoxy)-3-pyridyl]pyrazolo[1,5-a]pyrimidin-5-yl]piperazine-1-carboxylate], the IC50 was in the range of 51 to 150 nM in assay [1] (setting [5]) and 151 to 500 nM in assay [4] (setting [6]).

Regarding `[2H]C([2H])([2H])N1C[C@@H](OC(=O)N2CCN(c3nc4c(-c5cc(OC)cnc5OC5CC5)cnn4cc3F)CC2)CC1=O` [Compound I-117, [(3S)-5-oxo-1-(trideuteriomethyl)pyrrolidin-3-yl]4-[3-[2-(cyclopropoxy)-5-methoxy-3-pyridyl]-6-fluoro-pyrazolo[1,5-a]pyrimidin-5-yl]piperazine-1-carboxylate], the results for the IC50 in assay [1] (setting [5]), in assay [3] and in assay [4] (setting [6]) were 1 to 50 nM, 1 to 50 nM and 501 to 1500 nM, respectively.

For the compound `CC1(OC(=O)N2CCN(c3ccn4ncc(-c5cccnc5OCC5COC5)c4n3)CC2)COC1` [Compound I-20], the IC50 is over 1500 nM in assay [2], 151 to 500 nM in assay [3] and 501 to 1500 nM in assay [4] (setting [6]).

Consider `O=C(O[C@H]1CO[C@H]2OCC[C@H]21)N1CCN(c2ccn3ncc(-c4cnccn4)c3n2)CC1` [Compound I-66, [(3aS,4R,6aR)-2,3,3a,4,5,6a-hexahydrofuro[2,3-b]furan-4-yl]-4-(3-pyrazin-2-ylpyrazolo[1,5-a]pyrimidin-5-yl)piperazine-1-carboxylate], for which the IC50 in assay [2] fell in the range of 501 to 1500 nM; in assay [3], 151 to 500 nM; in assay [4] (setting [6]), 501 to 1500 nM.

As for `O=C1C[C@H](OC(=O)N2CCN(c3ccn4ncc(-c5cccnc5NC5CCC5)c4n3)CC2)CN1` [Compound I-46, [(3S)-5-oxopyrrolidin-3-yl]4-[3-[2-(cyclobutylamino)-3-pyridyl]pyrazolo [1,5-a]pyrimidin-5-yl]piperazine-1-carboxylate], the IC50 in assay [2] is over 1500 nM; in assay [3] it was over 1500 nM; in assay [4] (setting [6]), 501 to 1500 nM.

Regarding `COc1ncccc1-c1cnn2ccc(N3CCN(C(=O)OC(C)C)CC3)nc12` [LP-935509], the results for the IC50 in assay [1] and in assay [4] were 33.3 nM and 720 nM, respectively.

The values above are taken from US20250122207A1, “AP2 ASSOCIATED KINASE 1 INHIBITORS AND USES THEREOF” (Satellos Bioscience Inc., priority 2023, published 2025).
